For one cell line, relative viability results are on record in the supplement of paper PMC10307832.

What all share (test): relative viability (nuclei count vs DMSO), 5 days (fraction); higher = more cells survive
Compound in the experiment “GSK126 + Pictilisib”: CC[C@H](C)N1C=C(C2=C(C=C(C=C21)C3=CN=C(C=C3)N4CCNCC4)C(=O)NCC5=C(C=C(NC5=O)C)C)C [GSK126] + CS(=O)(=O)N1CCN(Cc2cc3nc(-c4cccc5[nH]ncc45)nc(N4CCOCC4)c3s2)CC1 [Pictilisib] (partner 1 µM)
An outline of the steps: (§1)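 Dosing by pin tool came one day after lung cancer cell lines were seeded in 1536-well plates, using either one drug or a fixed anchor-drug dose plus five library-drug doses (not always all listed) in √10 steps. After 5 days, nuclei were counted on 4× images. Relative viability is treated-well nuclei count divided by vehicle-well nuclei count, and values are medians of duplicate plates.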

Compound in the experiment “MLN4924 + Phenformin”: NS(=O)(=O)OC[C@@H]1C[C@@H](n2ccc3c(N[C@H]4CCc5ccccc54)ncnc32)C[C@@H]1O [MLN4924] + N=C(N)NC(=N)NCCc1ccccc1 [Phenformin] (partner 250 µM)
In short, it runs like this: as §1

Compound in the experiment “MLN4924 + OSI-027”: NS(=O)(=O)OC[C@@H]1C[C@@H](n2ccc3c(N[C@H]4CCc5ccccc54)ncnc32)C[C@@H]1O [MLN4924] + COc1cccc2cc(-c3nc([C@H]4CC[C@H](C(=O)O)CC4)n4ncnc(N)c34)[nH]c12 [OSI-027] (partner 0.5 µM)
In short, it runs like this: as §1

Compound in the experiment “Carboplatin + Linsitinib”: C1CC(C1)(C(=O)O)C(=O)O.[NH2-].[NH2-].[Pt+2] [Carboplatin] + C[C@]1(O)C[C@@H](c2nc(-c3ccc4ccc(-c5ccccc5)nc4c3)c3c(N)nccn32)C1 [Linsitinib] (partner 1 µM)
An outline of the steps: as §1

In the case of UMC-11, the relative viability in the experiment with GSK126 + Pictilisib (first compound 0.08 µM) turned out to be 0.91; with GSK126 + Pictilisib (first compound 0.253 µM), 0.85; with GSK126 + Pictilisib (first compound 0.8 µM), 0.882; in the experiment with GSK126 + Pictilisib (first compound 2.53 µM), 0.829; with GSK126 + Pictilisib (first compound 8 µM) it was 0.714; in the experiment with MLN4924 + Phenformin (first compound 0.04 µM) it was 0.322. Besides, the relative viability in the experiment with MLN4924 + Phenformin (first compound 0.1265 µM) came to 0.287; with MLN4924 + Phenformin (first compound 0.4 µM), 0.266; with MLN4924 + Phenformin (first compound 1.265 µM), 0.185; with MLN4924 + Phenformin (first compound 4 µM) it was 0.189; with MLN4924 + OSI-027 (first compound 0.04 µM), 0.429; with MLN4924 + OSI-027 (first compound 0.1265 µM) it was 0.315. Also, the relative viability in the experiment with MLN4924 + OSI-027 (first compound 0.4 µM) was found to be 0.271; in the experiment with MLN4924 + OSI-027 (first compound 1.265 µM), 0.168; in the experiment with MLN4924 + OSI-027 (first compound 4 µM) it was 0.179; with Carboplatin + Linsitinib (first compound 0.08 µM) it was 1.02; in the experiment with Carboplatin + Linsitinib (first compound 0.253 µM), 1.01; in the experiment with Carboplatin + Linsitinib (first compound 0.8 µM) it was 0.928. In addition, the relative viability with Carboplatin + Linsitinib (first compound 2.53 µM) is 0.98; with Carboplatin + Linsitinib (first compound 8 µM), 0.837.
